# Test results published in patent US20170296505A1, “LONG-CHAIN CARBOXYCHROMANOLS AND ANALOGS FOR USE AS ANTI-INFLAMMATORY AGENTS” (Purdue Research Foundation, priority 2008, published 2017).
# Where two headings read alike, the source gives them in different places.
# Key:
# COX-2 [1] = target: T1, COX-2 (Homo sapiens, UniProt P35354); assay: COX-2 activity assay using purified enzyme; format: biochemical; parameters: purchased Cayman Chemicals (Ann Arbor, Mich.); details: at 250 μM
# T1 sequence (P35354 18-604): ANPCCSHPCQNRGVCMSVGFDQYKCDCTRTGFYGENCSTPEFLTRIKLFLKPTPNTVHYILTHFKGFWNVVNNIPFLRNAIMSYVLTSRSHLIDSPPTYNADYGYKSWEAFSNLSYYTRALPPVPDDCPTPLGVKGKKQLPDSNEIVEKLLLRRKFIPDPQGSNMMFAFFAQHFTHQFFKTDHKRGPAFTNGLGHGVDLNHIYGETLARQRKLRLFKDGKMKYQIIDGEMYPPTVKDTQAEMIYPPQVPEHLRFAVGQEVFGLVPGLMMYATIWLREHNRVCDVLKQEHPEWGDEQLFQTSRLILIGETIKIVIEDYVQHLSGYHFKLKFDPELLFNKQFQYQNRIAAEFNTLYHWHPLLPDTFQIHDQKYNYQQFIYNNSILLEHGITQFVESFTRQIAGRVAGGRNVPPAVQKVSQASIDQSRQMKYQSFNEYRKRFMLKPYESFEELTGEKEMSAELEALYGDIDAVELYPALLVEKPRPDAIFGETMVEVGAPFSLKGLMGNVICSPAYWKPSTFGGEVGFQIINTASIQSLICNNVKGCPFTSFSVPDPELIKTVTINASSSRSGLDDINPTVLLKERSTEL
# Method: (§1) COX-1 and COX -2 activity assay using purified enzymes—The enzymatic reactions were performed in 0.1M Tris (pH 8.0), in the presence of 5 mM EDTA, 2 mM phenol, and 1 μM heme. […] Enzymatic reactions were initiated by addition of AA at a final concentration of 5 μM for 2 min. The reaction was stopped by addition of 0.1 M HCl. Stannous chloride in 0.1 M HCl was then added to reduce PGG2 and PGH2 to PGF2a. After addition of 0.5 vol of […] NaCl, prostaglandins formed in the reaction were extracted using 2.5 vol of ethyl acetate and the organic layer was completely dried under N2. PGF2a, and PGE2 were quantified using ELISA assays from Cayman Chemicals.
# ovine COX-1 = target: T2, ovine COX-1 (Ovis aries, UniProt P05979); assay: COX-1 activity assay using purified enzyme; format: biochemical
# T2 construct: purchased Cayman Chemicals (Ann Arbor, Mich.)
# T2 sequence (P05979 25-600): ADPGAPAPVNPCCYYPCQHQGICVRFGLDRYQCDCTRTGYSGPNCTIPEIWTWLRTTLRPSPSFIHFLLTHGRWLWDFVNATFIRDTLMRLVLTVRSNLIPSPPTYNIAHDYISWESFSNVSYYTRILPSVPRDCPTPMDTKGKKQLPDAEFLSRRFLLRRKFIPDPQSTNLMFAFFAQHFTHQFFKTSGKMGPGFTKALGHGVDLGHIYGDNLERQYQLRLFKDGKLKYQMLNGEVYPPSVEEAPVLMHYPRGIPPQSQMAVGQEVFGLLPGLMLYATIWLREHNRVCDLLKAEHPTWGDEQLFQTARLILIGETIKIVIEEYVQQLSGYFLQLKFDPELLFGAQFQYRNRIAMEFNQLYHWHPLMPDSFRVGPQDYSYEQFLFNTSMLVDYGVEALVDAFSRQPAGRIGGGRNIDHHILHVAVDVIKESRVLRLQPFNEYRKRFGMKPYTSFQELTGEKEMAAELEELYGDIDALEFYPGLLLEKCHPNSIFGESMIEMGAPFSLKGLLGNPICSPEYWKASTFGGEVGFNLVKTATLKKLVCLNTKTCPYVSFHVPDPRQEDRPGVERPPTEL
# Method: as §1
# [2] = test system: PGE2 in IL-1β treated A549 cells; assay: PGE2 generation during chronic IL-1β treatment; format: cell-based, human; details: for IC50: read-out: concentration to cause 50% inhibition of PGE2, in the presence of exogenous AA (5 μM, 5 min) after co-incubation with IL-1β
# Method: (§2) A549 cells were pre-incubated with different concentrations of tocopherols in the presence or absence of 1 μM sesamin for 15 h, and then treated with IL-1β (2 ng/mL) for 24 h. PGE2 in the cell-culture media was measured by ELISA assays. Results are the averages of three independent experiments and expressed as Mean±SEM.
# as §2, with “tocotrienols” for “tocopherols”
# PGE2 generation during chronic IL-1β treatment—2.5−3×10^5 A549 cells per well were seeded in RPMI-1640 with 10% of FBS and allowed to attach overnight in a 24-well plate. Vitamin E stock solutions were initially made in DMSO and then diluted in 10 mg/mL of bovine serum albumin. Confluent cells were incubated in DMEM containing 1% FBS with DMSO (control) or vitamin E forms for 14-16 h and then 2 ng/ml of IL-1β was introduced for 24 hours. The medium was then collected and PGE2 accumulation was measured using ELISA assay from Cayman Chemicals (Ann Arbor, Mich.).
# Statistical analysis—The unpaired student's t-test was used in the statistical analysis. All results are expressed as mean±SD. Activation of human lung epithelial A549 cells by IL-1β leads to a strong up-regulation of COX-2 protein expression and almost 100-fold increase of PGE2 generation. This cellular system has been employed to evaluate inhibitory potency of anti-inflammatory drugs, including COX inhibitors and was previously used by us to study the effect of α-T, γ-T and γ-CEHC on PGE2 formation (13, 20). […] Inhibition of PGE2 by γ-T, and γ-TE was also observed in the presence of exogenous AA, where after co-incubated with vitamin E forms and IL-1β, cells were incubated with fresh media containing 5 μM of AA for 5 min.
# [3] = test system: IL-1beta-stimulated PGE2 formation in A549 cells; assay: IL-1beta-stimulated PGE2 formation with or without sesamin (Table 4); format: cell-based, human; details: IL-1beta 2 ng/ml, 8 h; 13′-COOH 2.5 uM, sesamin 1 uM
# Method: Briefly, A549 cells were stimulated with IL-1beta (2 ng/ml) in the presence of DMSO (ctrl, 0.1%), control with sesamin (1 uM), 13′-COOH (structure 1) at 2.5 uM, 13′-COOH with sesamin (1 uM). Basal control was cells incubated with medium without IL-1beta. Eight hours later, media were collected and PGE2 was measured by ELISA.
# A549 cells [4] = assay: Metabolites of vitamin E forms in A549 conditioned media (HPLC); format: in vitro ADME, human; details: 20 μM
# Method: FIG. 3A illustrates that unconjugated long-chain carboxychromanols but not sulfated derivatives inhibited COX-2 activity in intact cells. […] Sulfated metabolites were the sum of 9′S, 11′S and 13′S, and unconjugated metabolites are the sum of 9′, 11′ and 13′. Conditioned media were obtained by incubation of A549 cells with γ-TE at 20 μM for 24, 48 and 72 h. Metabolites were extracted and measured using HPLC assay. The conditioned media were then used for the activity assay as described in FIG. 2A and 2B. Unsulfated/sulfated is the ratio of the sum of 9′, 11′ and 13′ to that of 9′S, 11′S and 13′S. All the results are expressed as Mean±SD. […]
# Quantitation of vitamin E metabolites in conditioned media—Long-chain carboxychromanols and their sulfated counterparts were quantitated by a HPLC assay with fluorescent detection (17). […]
# Extracted metabolites were separated using HPLC and detected by a Shimadzu RF-10AXL spectrofluorometric detector (Shimadzu, Columbia, Md.) with the excitation and emission wavelength at 292 nm and 327 nm, respectively. […] Long-chain metabolites were quantified using tocopherols as the external standards with a correction factor based on the linear relationship between fluorescent intensity and solvent content (17).
# A549 cells [5] = assay: Cell viability of confluent A549 cells (MTT); format: cell-based, human; details: 100% confluent cells, 1% FBS
# 5-LOX = target: T3, 5-LOX (Homo sapiens, UniProt P09917); assay: 5-LOX inhibition with purified human enzyme (Table 3); format: biochemical; details: mean±SEM
# T3 sequence (P09917 1-674): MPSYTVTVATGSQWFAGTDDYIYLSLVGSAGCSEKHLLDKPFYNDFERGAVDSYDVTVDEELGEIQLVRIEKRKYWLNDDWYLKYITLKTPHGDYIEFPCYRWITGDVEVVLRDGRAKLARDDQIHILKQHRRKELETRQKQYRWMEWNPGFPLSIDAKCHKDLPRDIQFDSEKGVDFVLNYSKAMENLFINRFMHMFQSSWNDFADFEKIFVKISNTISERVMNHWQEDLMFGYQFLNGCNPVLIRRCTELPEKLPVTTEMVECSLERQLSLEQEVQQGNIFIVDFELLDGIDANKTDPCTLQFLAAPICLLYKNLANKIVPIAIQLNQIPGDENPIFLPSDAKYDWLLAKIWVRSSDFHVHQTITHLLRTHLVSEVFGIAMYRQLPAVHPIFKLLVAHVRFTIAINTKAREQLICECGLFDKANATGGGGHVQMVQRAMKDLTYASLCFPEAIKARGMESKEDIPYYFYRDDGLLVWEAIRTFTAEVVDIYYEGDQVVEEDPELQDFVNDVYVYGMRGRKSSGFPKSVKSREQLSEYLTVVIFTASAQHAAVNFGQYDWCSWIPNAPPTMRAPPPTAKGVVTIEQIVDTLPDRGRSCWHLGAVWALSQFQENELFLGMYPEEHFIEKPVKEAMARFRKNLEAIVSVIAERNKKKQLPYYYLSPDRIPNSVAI
# Source text: Results are mean±SEM based on four or more independent experiments.
# COX-2 [6] = target: T1, COX-2; assay: COX-2 inhibition with purified human enzyme (Table 3); format: biochemical; parameters: A549 cells were pre-treated with 0.5-1 ng/mL of IL-1β- for 6 hours to induce COX-2 expression; endogenous in cells; details: mean±SEM
# Source text: Free radical biology & medicine 95, 190-199. Results are mean±SEM based on four or more independent experiments.
# [7] = LC-MS analysis of fecal samples of mice fed δTE-13′; format: in vivo; details: mice fed with δTE-13′
# Source text: FIG. 6. Detection of δTE-13′-1 in fecal samples.
structure (smiles),measurement,setting,value
"CC(=O)Nc1ccc(O)cc1 [Acetaminophen, reference compound]",inhibition of COX-2,COX-2 [1],did not significantly inhibit
same,inhibition of COX-1,ovine COX-1; at 250 μM,did not significantly inhibit
same,IC50 COX-1,"ovine COX-1; purified enzyme, Not inhibit: 9′ at 20 μM, acetaminophen at 250 μM",Not inhibit*
"c1cc2c(cc1[C@H]1OC[C@H]3[C@@H]1CO[C@@H]3c1ccc3c(c1)OCO3)OCO2 [sesamin, reference compound]",effect on PGE2 generation,[2]; sesamin alone at 1 μM,did not affect
same,PGE2,[3],12.46 ± 1.4 ng/mL
"CC(C)=CCC/C(C)=C/CC/C(C)=C/CC[C@]1(C)CCc2c(C)c(O)c(C)c(C)c2O1 [α-TE, α-Tocotrienol]",inhibition of PGE2 formation,"[2]; at 20 μM, A549 cells co-treated with IL-1β",20%
"CC(C)=CCC/C(C)=C/CC/C(C)=C/CC[C@]1(C)CCc2cc(O)c(C)c(C)c2O1 [γ-TE, γ-tocotrienol]",share of metabolites that are sulfated carboxychromanols,A549 cells [4]; 72-h incubation,more than 85%
same,share of metabolites that are unconjugated carboxychromanols,A549 cells [4]; first 24-h incubation,90%
same,effect of sesamin on the inhibitory potency on PGE2,[2]; in the presence of 1 μM sesamin,moderately diminished
same,IC50,[2],10 µM
same,"cell viability (MTT, cell morphology)",A549 cells [5]; 20 μM,did not show significant effects
Cc1c(O)cc2c(c1C)OC(C)(CCCC(C)CCCC(C)CCCC(C)C)CC2 (centres unmarked) [γ-T],IC50,"[2]; Homo sapiens, A549, 5 min",25 µM
same,"cell viability (MTT, cell morphology)",A549 cells [5]; 25-50 μM,did not show significant effects
same,IC50,5-LOX,> 50 µM
same,IC50,COX-2 [6],> 50 µM
Cc1cc(O)cc2c1OC(C)(CCCC(C)CCCC(C)CCCC(C)C)CC2 (centres unmarked) [δ-T],IC50,"[2]; Homo sapiens, A549, 5 min",10 µM
same,"cell viability (MTT, cell morphology)",A549 cells [5]; 25-50 μM,did not show significant effects
same,IC50,5-LOX,> 50 µM
same,IC50,COX-2 [6],> 50 µM
C/C(=C\CCC1(C)CCc2cc(O)cc(C)c2O1)CC/C=C(\C)CCCC(C)C(=O)O (centres unmarked) [δTE-13′-1],formation in fecal samples,[7],detected
